From patent US9539298B2, “Lissencephaly therapeutic agent” (OSAKA CITY UNIVERSITY, priority 2010, dated 2017)

Test system: fibroblasts derived from human lissencephaly patient (Lis1 +/−)
Test: Fluorescence immunostaining of fibroblasts derived from a human lissencephaly patient
Assay type: cell-based
Details: 200 μM, two hours
Experimental: The establishment of fibroblasts was performed in the following manner. Under a germ-free condition, a portion of epidermis (5 mm square) was obtained from a lissencephaly patient. The obtained epidermis was transported for 4 hours at room temperature while stored in a culture solution (E-MEM (Wako Pure Chemical Industries, Ltd., 051-07615), 10% fetal bovine blood serum (Equitech-Bio Inc, SFBM30-1798, 1×L-glutamine (Gibco, 25030), 1× Pen-Strep (Gibco, 15140)) (*the culture solution with this formulation is used hereinafter). After transportation, the tissue fragment was cut into a 1 mm square, fixed to a culture flask (Becton Dickinson 353009), and cultured for three weeks in 6 ml of a culture solution. After the 3-week culture, the amplification of fibroblasts from the tissue fragment was confirmed; then, the fragment was washed with a phosphate buffer physiological saline solution (phosphate buffered saline, PBS (−), 137 mM NaCl, 2.7 mM KCl, 10 mM Na2HPO4, 1.8 mM KH2PO4, pH 7.4), and 0.5 ml of trypsin-EDTA (Gibco, 25200) was added, followed by reaction for 5 minutes at 37° C. to separate the cells. Then, 10 ml of a culture solution was added, and the fragment was transferred to a 10 cm petri dish (Greiner, 664-160) for culture.
To observe the cells with a microscope, the cells were cultured on cover glasses. The cover glasses (24×24 No. 1, Matsunami Glass Ind., Ltd.) were immersed in 0.1 M hydrochloric acid for 20 minutes. After washing with water, the cover glasses were placed in 70% ethanol, and kept in a clean bench. In the clean bench, each cover glass was placed on the bottom of each well of a 6-well plate (Falcon 353046). After the ethanol was dried, 0.5×10^5 fibroblasts per well were added and cultured for 16 hours, thereby adhering the cells onto the cover glasses.
A SNJ-1945-containing culture solution was prepared. […]

COCCOCCOC(=O)N[C@@H](CC(C)C)C(=O)N[C@@H](Cc1ccccc1)C(=O)C(=O)NC1CC1 [compound 17, ((1S)-1-((((1S)-1-Benzyl-2,3-dioxo-3-(cyclopropylamino)propyl)amino)carbonyl)-3-methylbutyl)carbamic acid 5-methoxy-3-oxapentyl ester]
intracellular distribution of LIS1 (FIGS. 15 and 16): causes LIS1 to be accumulated around the nucleus or centrosome again
intracellular distribution of cytoplasmatic dynein (FIGS. 17 and 18): cytoplasmatic dynein became completely diffused again from the region around the nucleus to the cell marginal zone
intracellular distribution of β-COP-coated vesicles (FIGS. 19 and 20): β-COP-coated vesicles became distributed evenly from the region around the nucleus to the cell marginal zone again
